In ChEMBL document CHEMBL1157492, “Discovery of potent and cell-active allosteric dual Akt 1 and 2 inhibitors” (Bioorg Med Chem Lett, 2008):
Activity calls are given as the source filed them. No cut-off for these calls is given here.

Legend:
[1] = molecular target: T1, RAC-beta serine/threonine-protein kinase (Homo sapiens, UniProt P31751); test: Inhibition of Akt2 phosphorylation by HTRF assay
[2] = molecular target: T2, RAC-alpha serine/threonine-protein kinase (Homo sapiens, UniProt P31749); test: Inhibition of Akt1 phosphorylation in human by C33a cells by IPKA assay; format: cell-based
T2 sequence (P31749 whole entry): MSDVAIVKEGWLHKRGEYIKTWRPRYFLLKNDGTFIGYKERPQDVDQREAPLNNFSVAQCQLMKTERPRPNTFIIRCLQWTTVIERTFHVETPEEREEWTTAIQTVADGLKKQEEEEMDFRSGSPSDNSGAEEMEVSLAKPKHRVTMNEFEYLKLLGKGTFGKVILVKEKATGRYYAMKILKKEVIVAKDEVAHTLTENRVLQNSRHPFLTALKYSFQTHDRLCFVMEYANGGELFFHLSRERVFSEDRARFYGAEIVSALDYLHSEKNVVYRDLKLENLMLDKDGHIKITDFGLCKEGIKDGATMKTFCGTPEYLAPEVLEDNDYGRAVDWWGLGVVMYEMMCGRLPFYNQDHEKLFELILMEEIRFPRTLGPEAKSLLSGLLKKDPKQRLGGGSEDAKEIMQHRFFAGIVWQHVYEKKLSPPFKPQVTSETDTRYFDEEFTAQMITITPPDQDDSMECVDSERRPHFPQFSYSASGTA

[3] = molecular target: T1, RAC-beta serine/threonine-protein kinase; test: Inhibition of Akt2 phosphorylation in human by C33a cells by IPKA assay; format: cell-based
[4] = molecular target: T2, RAC-alpha serine/threonine-protein kinase; test: Inhibition of Akt1 phosphorylation by HTRF assay

T1 sequence (P31751 whole entry): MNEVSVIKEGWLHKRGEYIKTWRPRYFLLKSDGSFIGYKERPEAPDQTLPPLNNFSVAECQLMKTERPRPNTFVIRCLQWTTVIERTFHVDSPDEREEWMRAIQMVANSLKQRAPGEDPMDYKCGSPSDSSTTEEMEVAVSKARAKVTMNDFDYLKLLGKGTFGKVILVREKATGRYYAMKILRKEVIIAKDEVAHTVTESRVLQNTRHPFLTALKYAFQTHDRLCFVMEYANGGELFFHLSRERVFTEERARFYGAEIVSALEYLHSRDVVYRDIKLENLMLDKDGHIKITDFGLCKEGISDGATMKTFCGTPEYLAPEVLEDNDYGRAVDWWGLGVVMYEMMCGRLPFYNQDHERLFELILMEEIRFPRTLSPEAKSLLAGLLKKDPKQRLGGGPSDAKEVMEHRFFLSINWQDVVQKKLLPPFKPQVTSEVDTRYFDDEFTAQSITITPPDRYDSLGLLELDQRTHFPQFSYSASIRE

SMILES	IC50 [1]	IC50 [2]	IC50 [3]	IC50 [4]	Activity [2]	Activity [3]
C[C@@H]1CN(c2ncc3cc(-c4ccccc4)c(-c4ccc(CN5CCC(c6nnc(-c7ccccn7)[nH]6)CC5)cc4)nc3n2)C[C@H](C)N1	77 nM	46 nM	101 nM	45 nM	–	–
CC(=O)N1CCN(c2ncc3cc(-c4ccccc4)c(-c4ccc(CN5CCC(c6nnc(-c7ccccn7)[nH]6)CC5)cc4)nc3n2)CC1	16 nM	15 nM	145 nM	5 nM	–	–
OC1CCN(c2ncc3cc(-c4ccccc4)c(-c4ccc(CN5CCC(c6nnc(-c7ccccn7)[nH]6)CC5)cc4)nc3n2)CC1	45 nM	17 nM	168 nM	7 nM	–	–
c1ccc(-c2cc3cnc(N4CCCCC4)nc3nc2-c2ccc(CN3CCC(c4nnc(-c5ccccn5)[nH]4)CC3)cc2)cc1	93 nM	36 nM	229 nM	18 nM	–	–
CN(C)CC(=O)N1CCN(c2ncc3cc(-c4ccccc4)c(-c4ccc(CN5CCC(c6nnc(-c7ccccn7)[nH]6)CC5)cc4)nc3n2)CC1	6 nM	3 nM	19 nM	6 nM	–	–
C[C@@H]1CN[C@@H](C)CN1c1ncc2cc(-c3ccccc3)c(-c3ccc(CN4CCC(c5nnc(-c6ccccn6)[nH]5)CC4)cc3)nc2n1	29 nM	194 nM	199 nM	43 nM	–	–
CN(C)CCNc1ncc2cc(-c3ccccc3)c(-c3ccc(CN4CCC(c5nnc(-c6ccccn6)[nH]5)CC4)cc3)nc2n1	154 nM	208 nM	223 nM	79 nM	–	–
CN1CCN(c2nccc3nc(-c4ccc(CN5CCC(c6nnc(-c7ccccn7)[nH]6)CC5)cc4)c(-c4ccccc4)cc23)CC1	539 nM	–	–	285 nM	inactive	inactive
O=S1(=O)CCN(c2ncc3cc(-c4ccccc4)c(-c4ccc(CN5CCC(c6nnc(-c7ccccn7)[nH]6)CC5)cc4)nc3n2)CC1	297 nM	–	–	38 nM	inactive	–
CN(C)C1CCN(c2ncc3cc(-c4ccccc4)c(-c4ccc(CN5CCC(c6nnc(-c7ccccn7)[nH]6)CC5)cc4)nc3n2)CC1	22 nM	23 nM	70 nM	10 nM	–	–
CN1CCN(c2cc3cc(-c4ccccc4)c(-c4ccc(CN5CCC(c6nnc(-c7ccccn7)[nH]6)CC5)cc4)nc3cn2)CC1	59 nM	924 nM	133 nM	740 nM	–	–
C[C@H]1CN(c2ncc3cc(-c4ccccc4)c(-c4ccc(CN5CCC(c6nnc(-c7ccccn7)[nH]6)CC5)cc4)nc3n2)CCN1	47 nM	75 nM	125 nM	17 nM	–	–
c1ccc(-c2cc3cnc(-n4ccnc4)nc3nc2-c2ccc(CN3CCC(c4nnc(-c5ccccn5)[nH]4)CC3)cc2)cc1	73 nM	35 nM	684 nM	5 nM	–	–
CN1CC(N2CCN(c3ncc4cc(-c5ccccc5)c(-c5ccc(CN6CCC(c7nnc(-c8ccccn8)[nH]7)CC6)cc5)nc4n3)CC2)C1	9 nM	6 nM	27 nM	12 nM	–	–
FC1(F)CCN(c2ncc3cc(-c4ccccc4)c(-c4ccc(CN5CCC(c6nnc(-c7ccccn7)[nH]6)CC5)cc4)nc3n2)C1	252 nM	75 nM	462 nM	20 nM	–	–
CN1CCN(c2nccc3cc(-c4ccccc4)c(-c4ccc(CN5CCC(c6nnc(-c7ccccn7)[nH]6)CC5)cc4)nc23)CC1	3570 nM	–	–	720 nM	inactive	inactive
C[C@@H]1CN(c2ncc3cc(-c4ccccc4)c(-c4ccc(CN5CCC(c6nnc(-c7ccccn7)[nH]6)CC5)cc4)nc3n2)CCN1	25 nM	36 nM	44 nM	8 nM	–	–

Continued, values first:

IC50 [1]	IC50 [2]	IC50 [3]	IC50 [4]	Activity [2]	Activity [3]	SMILES
27 nM	36 nM	52 nM	9 nM	–	–	CN1CCN(c2ncc3cc(-c4ccccc4)c(-c4ccc(CN5CCC(c6nnc(-c7ccccn7)[nH]6)CC5)cc4)nc3n2)CC1
67 nM	61 nM	421 nM	25 nM	–	–	O[C@@H]1CN(c2ncc3cc(-c4ccccc4)c(-c4ccc(CN5CCC(c6nnc(-c7ccccn7)[nH]6)CC5)cc4)nc3n2)CCN1
31 nM	17 nM	41 nM	9 nM	–	–	OCCN1CCN(c2ncc3cc(-c4ccccc4)c(-c4ccc(CN5CCC(c6nnc(-c7ccccn7)[nH]6)CC5)cc4)nc3n2)CC1
–	78 nM	388 nM	–	–	–	CSc1ncc2cc(-c3ccccc3)c(-c3ccc(CNCCC(=O)c4ccccc4N)cc3)nc2n1
138 nM	125 nM	735 nM	19 nM	–	–	c1ccc(-c2cc3cnc(N4CCn5cnnc5C4)nc3nc2-c2ccc(CN3CCC(c4nnc(-c5ccccn5)[nH]4)CC3)cc2)cc1
43 nM	19 nM	243 nM	5 nM	–	–	c1ccc(-c2cc3cnc(N4CCOCC4)nc3nc2-c2ccc(CN3CCC(c4nnc(-c5ccccn5)[nH]4)CC3)cc2)cc1
102 nM	42 nM	184 nM	28 nM	–	–	C[C@@H]1CN(c2ncc3cc(-c4ccccc4)c(-c4ccc(CN5CCC(c6nnc(-c7ccccn7)[nH]6)CC5)cc4)nc3n2)C[C@H](C)O1
23 nM	20 nM	196 nM	7 nM	–	–	CS(=O)(=O)N1CCN(c2ncc3cc(-c4ccccc4)c(-c4ccc(CN5CCC(c6nnc(-c7ccccn7)[nH]6)CC5)cc4)nc3n2)CC1
40 nM	13 nM	177 nM	18 nM	–	–	CN(C)C(=O)N1CCN(c2ncc3cc(-c4ccccc4)c(-c4ccc(CN5CCC(c6nnc(-c7ccccn7)[nH]6)CC5)cc4)nc3n2)CC1
